Assay results as given in US4791215A, “Derivatives of glutamic acid and aspartic acid” (priority 1984, dated 1988).

How the values were obtained:
[1] = Body weight on daily oral dosing; type: in vivo, rats
Procedure: (§1) In order to check the hypothesis that the anti-CCK activity shown by most of the compounds in question may be used to advantage in the treatment of anorexia in man or as an appetite stimulant for farm animals, the following experiment was carried out:
(§2) Male rats having a weight of about 160 g, divided into groups of 10 animals, were used. […]
(§3) The drug, in the form of the sodium salt, was dissolved in water and administered in a volume of 10 ml of H2 O/kg while the control group received an equal volume of the solvent alone.
(§4) The following tables give the average values of the food consumption and the average weight of each group of animals, calculated weekly as well as the Student's t value calculated from the various treated groups and the group of control animals.

[2] = system: CCK-8 induced contraction of guinea pig gall bladder; test: Anti-CCK activity on gall bladder strips in vitro; settings: for ED50 (concentration antagonising 50% of contracting effect of CCK-8): CCK-8 10 ng/ml
Method in brief: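 Longitudinal guinea pig gall bladder strips in Krebs at 32 °C, gassed with O2/CO2 95:5, were contracted with 10 ng/ml CCK-8. Isometric force was recorded across several compound concentrations, and ED50 was taken as the μg/ml concentration antagonising 50% of the CCK contraction.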

[3] = Food consumption on daily oral dosing; type: in vivo, rats
Procedure: as §1, §2, §3, §4

[4] = system: endogenous opiates analgesia; test: Analgesic activity of endogenous opiates released by transcutaneous shock, Tail Flick Test (Experiment 3); type: in vivo, rats
Method in brief: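 Non-fasted male rats (~200 g) stressed with 60 Hz-2.5 mA front-leg current, 1 s pulses every 5 s for 20 min, to release endogenous opiates. Analgesia measured by tail flick test.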

[5] = system: activity of analgesic drugs; test: Hot-plate test, potentiation of analgesic drugs (Experiment 2); type: in vivo, rats
Procedure: Experiment No. 2: Hot-plate test
The method is that described by Eddy et al. (J. Pharmac. Exp. Ther. 107, 385 (1953)).
Groups of five male rats having a weight of about 150 g, and which have not fasted, are used.
The animals are placed on a metal plate on the bottom of a transparent cylinder, which is heated to 55°±1° C. by an azeotropic boiling mixture (acetone-ethyl formate 1:1).
The reaction time is defined as the interval which passes between the moment at which the animal is placed on the hot-plate and the moment at which it either licks its feet or tries to jump out of the cylinder. The control reaction time is measured 10 and 5 minutes before administration of the drugs and 10, 20, 30, 45, 60 and 90 minutes afterwards. The animals are left on the plate for a maximum period of 30 seconds.
The response to the administration of the product is considered positive if at least a doubling of the normal reaction time is seen. The results obtained are given in Tables 2a and 2b which record the groups treated, the doses administered and the stay times on the plate expressed as the number of positive responses over the number treated.

CCCCCN(CCCCC)C(=O)C(CCC(=O)O)NC(=O)c1ccc(Cl)c(Cl)c1 (centres unmarked) [Compound C-7]
body weight ([1]; 0.3 mg/kg os, time 0): 162.1 ± 2.48 g
body weight ([1]; 0.3 mg/kg os, week 1): 201.3 ± 2.7 g
body weight ([1]; 0.3 mg/kg os, week 2): 254.5 ± 2.66 g
body weight ([1]; 0.3 mg/kg os, week 3): 315.2 ± 2.72 g
body weight ([1]; 1 mg/kg os, time 0): 166.0 ± 1.56 g
body weight ([1]; 1 mg/kg os, week 1): 214.7 ± 1.93 g
body weight ([1]; 1 mg/kg os, week 2): 267.5 ± 2.6 g
body weight ([1]; 1 mg/kg os, week 3): 319.8 ± 2.49 g
body weight ([1]; 3 mg/kg os, time 0): 166.6 ± 1.73 g
body weight ([1]; 3 mg/kg os, week 1): 227.9 ± 1.65 g
body weight ([1]; 3 mg/kg os, week 2): 290.9 ± 2.6 g
body weight ([1]; 3 mg/kg os, week 3): 349.5 ± 2.82 g
weight increase versus control animals ([1]; 0.3, 1 and 3 mg/kg os): significantly greater weight increase than the control animals
active concentration relative to that of CCK-8 ([2]; 50% antagonism of CCK-8): about 10 times
ED50 (concentration antagonising 50% of contracting effect of CCK-8) [2]: 0.06 µg/mL
increase in food consumption compared with controls ([3]; 0.3 mg/kg daily): about 15%
food consumption ([3]; 0.3 mg/kg os, week 1): 176.4 ± 3.70 g/week
food consumption ([3]; 0.3 mg/kg os, week 2): 216.8 ± 4.71 g/week
food consumption ([3]; 0.3 mg/kg os, week 3): 239.3 ± 4.07 g/week
food consumption ([3]; 1 mg/kg os, week 1): 199.6 ± 3.88 g/week
food consumption ([3]; 1 mg/kg os, week 2): 230.5 ± 3.09 g/week
food consumption ([3]; 1 mg/kg os, week 3): 261.4 ± 4.24 g/week
food consumption ([3]; 3 mg/kg os, week 1): 198.4 ± 3.66 g/week
food consumption ([3]; 3 mg/kg os, week 2): 244.8 ± 3.09 g/week
food consumption ([3]; 3 mg/kg os, week 3): 268.8 ± 4.86 g/week
increase in food consumption compared with controls ([3]; other doses tested (1, 3 mg/kg daily)): about 30%

CCCN(CCC)C(=O)C(CCC(=O)O)NC(=O)c1cccc(C#N)c1 (centres unmarked) [Compound C-20]
average latency, Tail Flick ([4]; compound 1 mg/kg iv + stress, 5'): 7.5 ± 0.3 s
average latency, Tail Flick ([4]; compound 1 mg/kg iv + stress, 10'): 5.34 ± 0.46 s
average latency, Tail Flick ([4]; compound 1 mg/kg iv + stress, 15'): 3.88 ± 0.29 s
average latency, Tail Flick ([4]; compound 3 mg/kg iv + stress, 5'): 8.48 ± 0.62 s
average latency, Tail Flick ([4]; compound 3 mg/kg iv + stress, 10'): 6.42 ± 0.21 s
average latency, Tail Flick ([4]; compound 3 mg/kg iv + stress, 15'): 4.98 ± 0.36 s
ED50 (concentration antagonising 50% of contracting effect of CCK-8) [2]: > 200 µg/mL
TOTAL positives ([5]; ASA 100 + compound 5 mg/kg i.p.): 12 x/30
positive responses over number treated ([5]; ASA 100 + compound 5 mg/kg i.p., 10'): 2/5
positive responses over number treated ([5]; ASA 100 + compound 5 mg/kg i.p., 20'): 2/5
positive responses over number treated ([5]; ASA 100 + compound 5 mg/kg i.p., 30'): 2/5
positive responses over number treated ([5]; ASA 100 + compound 5 mg/kg i.p., 45'): 3/5
positive responses over number treated ([5]; ASA 100 + compound 5 mg/kg i.p., 60'): 3/5
positive responses over number treated ([5]; ASA 100 + compound 5 mg/kg i.p., 90'): 0/5
TOTAL positives ([5]; ASA 100 + compound 20 mg/kg i.p.): 17 x/30
positive responses over number treated ([5]; ASA 100 + compound 20 mg/kg i.p., 10'): 1/5
positive responses over number treated ([5]; ASA 100 + compound 20 mg/kg i.p., 20'): 3/5
positive responses over number treated ([5]; ASA 100 + compound 20 mg/kg i.p., 30'): 3/5
positive responses over number treated ([5]; ASA 100 + compound 20 mg/kg i.p., 45'): 3/5
positive responses over number treated ([5]; ASA 100 + compound 20 mg/kg i.p., 60'): 4/5
positive responses over number treated ([5]; ASA 100 + compound 20 mg/kg i.p., 90'): 3/5
TOTAL positives ([5]; ASA 100 + compound 50 mg/kg i.p.): 22 x/30
positive responses over number treated ([5]; ASA 100 + compound 50 mg/kg i.p., 10'): 3/5
positive responses over number treated ([5]; ASA 100 + compound 50 mg/kg i.p., 20'): 2/5
positive responses over number treated ([5]; ASA 100 + compound 50 mg/kg i.p., 30'): 5/5
positive responses over number treated ([5]; ASA 100 + compound 50 mg/kg i.p., 45'): 5/5
positive responses over number treated ([5]; ASA 100 + compound 50 mg/kg i.p., 60'): 4/5
positive responses over number treated ([5]; ASA 100 + compound 50 mg/kg i.p., 90'): 3/5
effect on analgesic activity of propoxyphene ([5]; compound 3 mg/kg i.p.): can double the analgesic activity of propoxyphene
TOTAL positives ([5]; propoxyphene 15 + compound 1 mg/kg i.p.): 16 x/30
positive responses over number treated ([5]; propoxyphene 15 + compound 1 mg/kg i.p., 10'): 2/5
positive responses over number treated ([5]; propoxyphene 15 + compound 1 mg/kg i.p., 20'): 2/5
positive responses over number treated ([5]; propoxyphene 15 + compound 1 mg/kg i.p., 30'): 3/5
positive responses over number treated ([5]; propoxyphene 15 + compound 1 mg/kg i.p., 45'): 3/5
positive responses over number treated ([5]; propoxyphene 15 + compound 1 mg/kg i.p., 60'): 3/5
positive responses over number treated ([5]; propoxyphene 15 + compound 1 mg/kg i.p., 90'): 3/5
TOTAL positives ([5]; propoxyphene 15 + compound 3 mg/kg i.p.): 25 x/30
positive responses over number treated ([5]; propoxyphene 15 + compound 3 mg/kg i.p., 10'): 3/5
positive responses over number treated ([5]; propoxyphene 15 + compound 3 mg/kg i.p., 20'): 5/5
positive responses over number treated ([5]; propoxyphene 15 + compound 3 mg/kg i.p., 30'): 4/5
positive responses over number treated ([5]; propoxyphene 15 + compound 3 mg/kg i.p., 45'): 5/5
positive responses over number treated ([5]; propoxyphene 15 + compound 3 mg/kg i.p., 60'): 4/5
positive responses over number treated ([5]; propoxyphene 15 + compound 3 mg/kg i.p., 90'): 4/5
TOTAL positives ([5]; propoxyphene 15 + compound 10 mg/kg i.p.): 27 x/30
positive responses over number treated ([5]; propoxyphene 15 + compound 10 mg/kg i.p., 10'): 4/5
positive responses over number treated ([5]; propoxyphene 15 + compound 10 mg/kg i.p., 20'): 5/5
positive responses over number treated ([5]; propoxyphene 15 + compound 10 mg/kg i.p., 30'): 5/5
positive responses over number treated ([5]; propoxyphene 15 + compound 10 mg/kg i.p., 45'): 5/5
positive responses over number treated ([5]; propoxyphene 15 + compound 10 mg/kg i.p., 60'): 5/5
positive responses over number treated ([5]; propoxyphene 15 + compound 10 mg/kg i.p., 90'): 3/5
dose of maximum effect (propoxyphene potentiation) ([5]; with propoxyphene): 10 mg/kg i.p.
